Publication PMC10454678, “Synthesis of hydroxy benzoin/benzil analogs and investigation of their antioxidant, antimicrobial, enzyme inhibition, and cytotoxic activities” (Turkish Journal of Chemistry, 2021)
Values after ≈ are worked out from the molar mass of the structure shown. Like-named read-outs stand apart in the source and are kept apart here.

Legend:
[1] = test system: Enterococcus faecalis ATCC29212; assay: MIC, microdilution, E. faecalis; format: cell-based; conditions: Enterococcus faecalis, ATCC29212; Gram (+); Mueller-Hinton broth, 18-24 h, 36 °C; read-out: MIC Ef
[2] = test system: Pseudomonas aeruginosa ATCC27853; assay: MIC, microdilution, P. aeruginosa; format: cell-based; conditions: Pseudomonas aeruginosa, ATCC27853; Gram (-); Mueller-Hinton broth, 18-24 h, 36 °C; read-out: MIC Pa
[3] = test system: Staphylococcus aureus ATCC25923; assay: MIC, microdilution, S. aureus; format: cell-based; conditions: Staphylococcus aureus
[4] = test system: Escherichia coli ATCC 25922; assay: MIC, microdilution, E. coli; format: cell-based; conditions: Escherichia coli
[5] = test system: Yersinia pseudotuberculosis ATCC911; assay: microbe, parasite or virus in culture; format: cell-based; conditions: Yersinia pseudotuberculosis, ATCC911, read-out: MIC Yp
[6] = DPPH radical scavenging activity; conditions: 0.1 mM DPPH, 50 min dark, 517 nm
[7] = test system: Candida albicans ATCC60193; assay: MIC, microdilution, C. albicans; format: cell-based; conditions: Candida albicans, ATCC60193; fungus; YEPD broth, 48 h, 36 °C; read-out: MIC Ca
acetylcholinesterase = acetylcholinesterase (Homo sapiens, UniProt P22303); assay: biochemical; conditions: Tris-HCl pH 8.0, 25 °C, 405 nm; read-out: AChE IC50 (converted)
acetylcholinesterase, sequence (P22303 32-614, species assumed): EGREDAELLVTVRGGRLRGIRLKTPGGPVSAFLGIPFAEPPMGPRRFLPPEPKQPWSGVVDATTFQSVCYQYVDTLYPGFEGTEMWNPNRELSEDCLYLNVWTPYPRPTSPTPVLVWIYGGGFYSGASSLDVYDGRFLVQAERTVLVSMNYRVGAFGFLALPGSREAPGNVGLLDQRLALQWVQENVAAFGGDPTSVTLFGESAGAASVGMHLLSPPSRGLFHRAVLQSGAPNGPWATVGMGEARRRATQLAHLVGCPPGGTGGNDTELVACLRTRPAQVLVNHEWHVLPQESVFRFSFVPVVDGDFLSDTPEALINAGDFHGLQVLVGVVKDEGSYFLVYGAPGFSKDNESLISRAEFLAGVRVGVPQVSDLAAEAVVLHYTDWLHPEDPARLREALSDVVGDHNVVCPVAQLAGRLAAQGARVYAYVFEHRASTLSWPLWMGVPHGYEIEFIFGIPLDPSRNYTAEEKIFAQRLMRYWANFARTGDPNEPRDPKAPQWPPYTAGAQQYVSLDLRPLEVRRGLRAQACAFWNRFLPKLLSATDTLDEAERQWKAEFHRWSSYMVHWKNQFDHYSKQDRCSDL

[8] = Copper ions reducing activity (CUPRAC); conditions: Trolox equivalents; 30 min dark, room temperature, 450 nm
Bacillus cereus Roma709 = assay: MIC, microdilution, B. cereus; format: cell-based; conditions: Bacillus cereus
butyrylcholinesterase = butyrylcholinesterase (Homo sapiens, UniProt P06276); assay: biochemical; conditions: Tris-HCl pH 8.0, 25 °C, 405 nm; read-out: BChE IC50 (converted)
butyrylcholinesterase, sequence (P06276 29-602): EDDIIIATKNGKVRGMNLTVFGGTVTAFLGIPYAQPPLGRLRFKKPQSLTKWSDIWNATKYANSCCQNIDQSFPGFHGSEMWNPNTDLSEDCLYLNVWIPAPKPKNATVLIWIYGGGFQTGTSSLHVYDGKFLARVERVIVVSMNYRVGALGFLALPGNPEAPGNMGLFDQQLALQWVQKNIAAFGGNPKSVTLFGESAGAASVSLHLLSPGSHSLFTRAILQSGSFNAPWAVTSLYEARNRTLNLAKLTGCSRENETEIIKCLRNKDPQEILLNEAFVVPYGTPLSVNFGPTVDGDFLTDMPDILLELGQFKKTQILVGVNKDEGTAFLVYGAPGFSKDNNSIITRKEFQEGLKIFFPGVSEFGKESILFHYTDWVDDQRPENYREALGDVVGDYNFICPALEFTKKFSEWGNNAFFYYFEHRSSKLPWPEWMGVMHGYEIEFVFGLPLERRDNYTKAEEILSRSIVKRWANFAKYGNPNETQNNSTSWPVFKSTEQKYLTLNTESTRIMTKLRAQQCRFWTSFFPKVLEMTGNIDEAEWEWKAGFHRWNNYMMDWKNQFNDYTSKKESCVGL

α-glucosidase = assay: α-Glucosidase inhibition; format: biochemical; conditions: PNPG, pH 6.8, 37 °C, 400 nm
Procedure: It was incubated at 37 °C for 15 min. Similarly, an enzyme-free blank was prepared. The reaction was stopped when sodium carbonate (50 μL, 0.2 M) was added.

[9] = Ferric reducing antioxidant power (FRAP) assay; conditions: Trolox equivalents; compounds 2 mg/mL, 30 °C 30 min, 595 nm
[10] = test system: Mycobacterium smegmatis ATCC607; assay: MIC, microdilution, M. smegmatis; format: cell-based; conditions: for MIC: Mycolicibacterium smegmatis, ATCC607, 72 h
[11] = ATCC25923, Gram (+), Mueller-Hinton broth, 18-24 h, 36 °C, read-out: MIC Sa
[12] = ATCC25922, Gram (-), Mueller-Hinton broth, 18-24 h, 36 °C, read-out: MIC Ec
[13] = Tub., BHI broth, 36 °C, read-out: MIC Ms

SMILES	MIC [1] [µg/mL]	MIC [2] [µg/mL]	MIC [3, 11] [µg/mL]	MIC [4, 12] [µg/mL]	MIC [5] [µg/mL]	DPPH radical scavenging capacity (SC50) [6] [mg/mL]	MIC [7] [µg/mL]	IC50 (acetylcholinesterase) [µM]	CUPRAC, copper reducing antioxidant power [8] [μg/mL trolox/gram DW]	MIC (Bacillus cereus Roma709; ROMA709, read-out: MIC Bc) [µg/mL]	IC50 (butyrylcholinesterase) [µM]	α-Glucosidase IC50 (α-glucosidase) [µg/mL]	FRAP, the iron reducing antioxidant power [9] [μg/mL trolox/gram DW]	MIC [10, 13] [µg/mL]	MIC ([3]; ATCC25923, read-out: MIC Sa) [µg/mL]	MIC ([4]; ATCC25922, read-out: MIC Ec) [µg/mL]	MIC (Bacillus cereus Roma709; ROMA709, Gram (+), Mueller-Hinton broth, 18-24 h, 36 °C, read-out: MIC Bc) [µg/mL]	MIC Ms ([10]; Tub., BHI broth, 72 h, 36 °C) [µg/mL]	MIC ([10]; read-out: MIC Ms, Tub., BHI broth, 36 °C) [µg/mL]
CC1(C)S[C@@H]2[C@H](NC(=O)[C@H](N)c3ccccc3)C(=O)N2[C@H]1C(=O)O [Amp., Ampicillin, reference compound]	10 (≈ 28.6 µM)	> 128	35 (≈ 100 µM)	10 (≈ 28.6 µM)	18 (≈ 51.5 µM)	–	–	–	–	–	–	–	–	–	–	–	–	–	–
Cc1cc(C(C)(C)C)c(O)c(C(C)(C)C)c1 [BHT, di-t-butylhydroxytoluene, reference compound]	–	–	–	–	–	6.47 ± 0.12	–	–	–	–	–	–	–	–	–	–	–	–	–
O=C(c1cccc(O)c1)C(O)c1ccccc1 (stereo not drawn) [Compound 1, 2-Hydroxy-1-(3-hydroxyphenyl)-2-phenylethanone]	–	–	–	330 (≈ 1450 µM)	1320 (≈ 5780 µM)	15.21 ± 2.1	330 (≈ 1450 µM)	> 4380	738.33 ± 12.5	1320 (≈ 5780 µM)	1890	58.16	1238 ± 34.7	165 (≈ 723 µM)	–	–	–	–	–
O=C(c1cc(O)cc(O)c1)C(O)c1cc(O)cc(O)c1 (stereo not drawn) [Compound 7, 1,2-Bis(3,5-dihydroxyphenyl)-2-hydroxyethanone]	141 (≈ 510 µM)	283 (≈ 1020 µM)	–	–	1140 (≈ 4110 µM)	10.85 ± 0.7	283 (≈ 1020 µM)	443	95.00 ± 2.4	141 (≈ 510 µM)	> 3620	>1000	1715 ± 96.8	70 (≈ 253 µM)	283 (≈ 1020 µM)	141 (≈ 510 µM)	–	–	–
O=C(C(=O)c1ccc(O)cc1)c1ccccc1 [Compound 9, 1-(4-Hydroxyphenyl)-2-phenylethane-1,2-dione]	108 (≈ 477 µM)	108 (≈ 477 µM)	–	–	217 (≈ 959 µM)	8.64 ± 0.5	108 (≈ 477 µM)	637	48.33 ± 5.5	108 (≈ 477 µM)	> 4420	47.78	1946 ± 83.7	108 (≈ 477 µM)	108 (≈ 477 µM)	108 (≈ 477 µM)	–	–	–
O=C(C(=O)c1cc(O)cc(O)c1)c1ccccc1 [Compound 10, 1-(3,5-Dihydroxyphenyl)-2-phenylethane-1,2-dione]	–	32 (≈ 132 µM)	65 (≈ 268 µM)	17 (≈ 70.2 µM)	65 (≈ 268 µM)	52.10 ± 0.4	17 (≈ 70.2 µM)	161	455.00 ± 10.1	–	> 4130	100.08	1830 ± 44.8	9 to 18 (≈ 37.2 to 74.3 µM)	–	–	17 (≈ 70.2 µM)	17 (≈ 70.2 µM)	–
O=C(C(=O)c1cc(O)cc(O)c1)c1cc(O)cc(O)c1 [Compound 14, 1,2-Bis(3,5-dihydroxyphenyl)ethane-1,2-dione]	51 (≈ 186 µM)	51 (≈ 186 µM)	–	–	102 (≈ 372 µM)	7.38 ± 1.0	51 (≈ 186 µM)	257	133.33 ± 10.9	102 (≈ 372 µM)	> 3650	87.10	1974 ± 76.9	51 (≈ 186 µM)	–	102 (≈ 372 µM)	–	–	–
O=C(c1cccc(OC2O[C@H](CO)[C@@H](O)[C@H](O)[C@H]2O)c1)C(O)c1ccccc1 (stereo partly drawn) [Compound 15, 2-Hydroxy-1-(3-O-β -D-glucopyranosylphenyl)-2-phenylethanone]	–	–	–	–	–	–	25 (≈ 64 µM)	30.7	141.74 ±28.35	–	> 2560	>1000	2311.04 ± 31.21	–	–	–	–	–	–
O=C(c1ccc(OC2O[C@H](CO)[C@@H](O)[C@H](O)[C@H]2O)cc1)C(O)c1ccccc1 (stereo partly drawn) [Compound 16, 2-Hydroxy-1-(4-O-β -D-glucopyranosylphenyl)-2-phenylethanone]	–	–	–	–	–	44.75 ± 3.04	–	399	73.54 ± 17.36	–	484	>1000	1956.25 ± 48.13	–	–	–	–	–	–
O=C(c1cc(OC2O[C@H](CO)[C@@H](O)[C@H](O)[C@H]2O)cc(OC2O[C@H](CO)[C@@H](O)[C@H](O)[C@H]2O)c1)C(O)c1ccccc1 (stereo partly drawn) [Compound 17, 2-Hydroxy-1-(3,5-Di-O-β -D-glucopyranosylphenyl)-2-phenylethanone]	–	–	–	–	–	8.22 ± 1.08	–	> 1760	287.40 ± 9.81	–	> 1760	193.40	2647.92 ± 31.92	–	–	–	–	–	–
O=C(c1ccc(OC2O[C@H](CO)[C@@H](O)[C@H](O)[C@H]2O)cc1)C(O)c1cccc(OC2O[C@H](CO)[C@@H](O)[C@H](O)[C@H]2O)c1 (stereo partly drawn) [Compound 19, 2-Hydroxy-1-(4-O-β -D-glucopyranosylphenyl)-2-(3-O-β -D-glucopyranosyl-phenyl)ethanone]	–	–	–	–	–	8.86 ± 0.37	–	18.5	421.74 ± 24.39	–	> 1760	124.94	2612.50 ± 37.04	–	–	–	–	–	–
O=C(c1cc(OC2O[C@H](CO)[C@@H](O)[C@H](O)[C@H]2O)cc(OC2O[C@H](CO)[C@@H](O)[C@H](O)[C@H]2O)c1)C(O)c1cccc(OC2O[C@H](CO)[C@@H](O)[C@H](O)[C@H]2O)c1 (stereo partly drawn) [Compound 20, 2-Hydroxy-1-(3,5-di-O-β -D-glucopyranosylphenyl)-2-(3-O-β -D-glucopyranosylphenyl)ethanone]	–	–	–	–	–	7.78 ± 0.12	–	> 1340	775.58±12.34	–	254	48.25	2918.75±36.14	–	–	–	–	–	–
O=C(C(=O)c1cc(OC2O[C@H](CO)[C@@H](O)[C@H](O)[C@H]2O)cc(OC2O[C@H](CO)[C@@H](O)[C@H](O)[C@H]2O)c1)c1ccccc1 (stereo partly drawn) [Compound 23, 1-(3,5-Di-O-β -D-glucopyranosylphenyl)-2-phenylethane-1,2-dione]	–	–	–	–	–	17.74 ± 0.35	–	124	273.67 ± 27.23	–	> 1770	>1000	2267.50 ± 24.14	–	–	–	–	–	–
O=C(C(=O)c1cccc(OC2O[C@H](CO)[C@@H](O)[C@H](O)[C@H]2O)c1)c1cccc(O)c1 (stereo partly drawn) [Compound 24, 1-(3-O-β -D-Glucopyranosylphenyl)-2-(3-hydroxyphenyl)ethane-1,2-dione]	–	–	–	–	–	25.40 ± 0.19	–	697	251.46 ± 43.08	–	526	58.90	2401.25 ± 56.34	–	–	–	–	–	15 (≈ 37.1 µM)
OC(Cn1cncn1)(Cn1cncn1)c1ccc(F)cc1F [Flu., Fluconazole, reference compound]	–	–	–	–	–	–	< 8	–	–	–	–	–	–	–	–	–	–	–	–
[H]/N=C(/N)N[C@H]1[C@H](O)[C@@H](O)[C@H](O[C@@H]2O[C@@H](C)[C@](O)(C=O)[C@H]2O[C@@H]2O[C@@H](CO)[C@H](O)[C@@H](O)[C@@H]2NC)[C@@H](N/C(N)=N\[H])[C@@H]1O [Strep., Streptomycin, reference compound]	–	–	–	–	–	–	–	–	–	–	–	–	–	4 (≈ 6.88 µM)	–	–	–	–	–
